Data published in article PMC9266917, “New Peptide Functionalized Nanostructured Lipid Carriers with CNS Drugs and Evaluation Anti-proliferative Activity” (International Journal of Molecular Sciences, 2022).

Experiments:
[1] = preliminary solubility studies; drug added with stirring until saturation of the lipid; Compritol 888 ATO (melted, 80 °C), Transcutol HP and Miglyol (room temperature); n = 3
Method: Increasing amounts of TCP were successively added, with stirring, until saturation of the lipid was achieved. The saturation point occurred when the excess of solid TCP persisted for more than 8 h. Each determination was carried out in triplicate (n = 3).

[2] = system: SH-SY5Y cell line; experiment: Cell morphology visualization by microscope, SH-SY5Y; type: cell-based, human; settings: 24 h incubation, 1 µM
Method: (§1) After the treatments, cell morphology and growth were assessed by contrast phase microscope Lionheart FX (Biotech, USA) with use of Gen5 software (Biotech, USA) and a Leica DMI 6000B microscope equipped with a Leica DFC350 FX camera and then analyzed with the Leica LAS X imaging software (v3.7.4).

[3] = system: Caco-2 cell line; experiment: MTT cell viability assay, Caco-2; type: cell-based; settings: Caco-2, 24 h incubation, free peptide or conjugate at 10 µM, n = 3 or 6
Method: The MTT assay was conducted to determine metabolic activity of cells and assess cellular viability. Cells were maintained in culture incubated with DMEM further supplemented with 10% of heat-inactivated fetal bovine serum (FBS) and 1% penicillin and streptomycin at 37 °C in a controlled atmosphere of 5% CO2 (according to the ATCC recommendations). Before the experiment, SH-SY5Y cells and Caco-2 cell line were seeded in sterile, flat-bottom 96-well plates at the density of 18,000 cells per well and 6000 cells per well, respectively, and incubated for 24 h. […] Then the cells were incubated for 24 h and both negative and positive control were included with incubation with culture media and sterilized water (5:1) and DMSO 10% to promote the cell lyses, respectively. After incubation, all media was aspirated and replaced with 100 μL of MTT solution (at 0.5 mg/mL). Then, cells were incubated for 3 h in the dark. […] The absorbance was measured at 570 nm in a microplate reader (Synergy HT, Biotech Instruments inc., Winoosk, USA and Tecan Infinite M200, Tecan group Ltd., Männedorf, Switzerland). All experiments were performed in triplicates and the relative cell viability (%) was compared to control cells and calculated using the following equation: Cell viability (% of sample)=Abs sample/Abs control×100

[4] = system: Caco-2 cell line; experiment: Cell morphology visualization by microscope, Caco-2; type: cell-based; settings: Caco-2, 24 h incubation, 10 µM
Method: as §1

Compound	solubility in lipids [1]	cell viability and morphology by microscope visualization [2]	decrease of cell viability [3] [%]	cell viability and morphology by microscope visualization [4]
N[C@@H]1C[C@H]1c1ccccc1 (racemic) [TCP, (±)-trans-2-Phenylcyclopropylamine]	maximum solubility level in liquid lipid Transcutol HP			
KLALKLALKALKAALKLA-NH2 [MAP, model amphipathic peptide, cell-penetrating peptide]		decreased substantial cell viability and showed some morphologic change with loss of normal cellular structure and round aspect	20	decrease of cell viability and substantial morphologic changes
